Data: paper PMC9030254, “Target Hopping from Protein Kinases to PXR: Identification of Small-Molecule Protein Kinase Inhibitors as Selective Modulators of Pregnane X Receptor from TüKIC Library” (Cells, 2022)

Experiments:
Assay in all cases: Kinase profiling
Format in all cases: biochemical
[1] = target: T1, JAK2 (Homo sapiens, UniProt O60674)
T1 construct: purchased ProQinase (Freiburg, Germany)
Procedure: (§1) The analysis was performed by ProQinase (Freiburg, Germany).

[2] = target: T2, TYK2 (Homo sapiens, UniProt P29597)
T2 construct: purchased ProQinase (Freiburg, Germany)
Procedure: as §1

[3] = target: T3, BRSK2 (Homo sapiens, UniProt Q8IWQ3)
T3 construct: purchased ProQinase (Freiburg, Germany)
T3 sequence (Q8IWQ3 1-736): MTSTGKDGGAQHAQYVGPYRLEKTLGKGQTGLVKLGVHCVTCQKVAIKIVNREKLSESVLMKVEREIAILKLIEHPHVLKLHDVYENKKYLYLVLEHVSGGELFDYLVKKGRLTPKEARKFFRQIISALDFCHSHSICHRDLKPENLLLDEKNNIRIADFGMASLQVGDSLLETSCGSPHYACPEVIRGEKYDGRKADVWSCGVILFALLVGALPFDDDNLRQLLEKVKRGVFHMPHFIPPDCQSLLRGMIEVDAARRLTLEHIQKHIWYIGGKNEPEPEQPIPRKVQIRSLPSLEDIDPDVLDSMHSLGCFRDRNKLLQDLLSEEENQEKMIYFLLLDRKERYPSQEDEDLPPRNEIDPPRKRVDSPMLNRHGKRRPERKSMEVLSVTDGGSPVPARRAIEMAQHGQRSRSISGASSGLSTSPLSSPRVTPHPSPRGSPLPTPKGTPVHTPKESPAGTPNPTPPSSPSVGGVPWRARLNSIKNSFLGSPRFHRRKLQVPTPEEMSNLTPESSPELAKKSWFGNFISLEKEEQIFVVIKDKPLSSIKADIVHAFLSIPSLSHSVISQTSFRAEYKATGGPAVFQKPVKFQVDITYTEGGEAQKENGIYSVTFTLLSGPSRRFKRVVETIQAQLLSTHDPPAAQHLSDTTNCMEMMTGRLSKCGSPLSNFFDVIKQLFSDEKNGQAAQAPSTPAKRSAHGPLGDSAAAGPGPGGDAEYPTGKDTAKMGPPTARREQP
Procedure: as §1

[4] = target: T4, RIPK2 (Homo sapiens, UniProt O43353)
T4 construct: purchased ProQinase (Freiburg, Germany)
T4 sequence (O43353 whole entry): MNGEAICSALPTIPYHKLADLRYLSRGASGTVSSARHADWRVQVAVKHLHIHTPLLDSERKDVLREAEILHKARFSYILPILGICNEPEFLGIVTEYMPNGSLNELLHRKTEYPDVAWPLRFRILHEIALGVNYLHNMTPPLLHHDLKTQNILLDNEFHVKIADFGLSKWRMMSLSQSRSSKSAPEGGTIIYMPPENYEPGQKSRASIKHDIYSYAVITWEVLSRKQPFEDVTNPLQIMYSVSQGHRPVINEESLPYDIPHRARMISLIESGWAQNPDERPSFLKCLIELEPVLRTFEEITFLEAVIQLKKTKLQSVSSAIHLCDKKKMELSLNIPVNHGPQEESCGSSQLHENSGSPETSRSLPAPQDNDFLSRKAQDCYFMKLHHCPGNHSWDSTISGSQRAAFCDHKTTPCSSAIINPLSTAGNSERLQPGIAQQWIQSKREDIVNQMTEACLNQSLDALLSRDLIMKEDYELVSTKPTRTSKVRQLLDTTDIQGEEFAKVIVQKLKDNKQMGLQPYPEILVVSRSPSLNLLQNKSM
Procedure: as §1

[5] = target: T5, MAP4K4 (Homo sapiens, UniProt O95819)
T5 construct: purchased ProQinase (Freiburg, Germany)
Procedure: as §1

[6] = target: T6, HRI (Homo sapiens, UniProt Q9BQI3)
T6 construct: purchased ProQinase (Freiburg, Germany)
Procedure: as §1

[7] = target: T7, NEK2 (Homo sapiens, UniProt P51955)
T7 construct: purchased ProQinase (Freiburg, Germany)
T7 sequence (P51955 1-445): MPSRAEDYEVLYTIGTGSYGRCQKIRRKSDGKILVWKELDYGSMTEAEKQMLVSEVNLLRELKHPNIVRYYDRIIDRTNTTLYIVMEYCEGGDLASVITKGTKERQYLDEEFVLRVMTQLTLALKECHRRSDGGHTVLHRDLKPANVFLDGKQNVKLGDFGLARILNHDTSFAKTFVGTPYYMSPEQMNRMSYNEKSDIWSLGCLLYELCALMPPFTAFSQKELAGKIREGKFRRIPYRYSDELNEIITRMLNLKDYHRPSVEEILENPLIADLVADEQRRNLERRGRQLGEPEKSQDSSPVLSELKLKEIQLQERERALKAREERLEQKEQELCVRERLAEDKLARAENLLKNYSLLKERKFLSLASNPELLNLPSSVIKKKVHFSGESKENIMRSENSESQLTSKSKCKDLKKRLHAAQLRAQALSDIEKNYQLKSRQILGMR
Procedure: as §1

[8] = target: T8, TIE2 (Homo sapiens, UniProt Q02763)
T8 construct: purchased ProQinase (Freiburg, Germany)
T8 sequence (Q02763 23-1124): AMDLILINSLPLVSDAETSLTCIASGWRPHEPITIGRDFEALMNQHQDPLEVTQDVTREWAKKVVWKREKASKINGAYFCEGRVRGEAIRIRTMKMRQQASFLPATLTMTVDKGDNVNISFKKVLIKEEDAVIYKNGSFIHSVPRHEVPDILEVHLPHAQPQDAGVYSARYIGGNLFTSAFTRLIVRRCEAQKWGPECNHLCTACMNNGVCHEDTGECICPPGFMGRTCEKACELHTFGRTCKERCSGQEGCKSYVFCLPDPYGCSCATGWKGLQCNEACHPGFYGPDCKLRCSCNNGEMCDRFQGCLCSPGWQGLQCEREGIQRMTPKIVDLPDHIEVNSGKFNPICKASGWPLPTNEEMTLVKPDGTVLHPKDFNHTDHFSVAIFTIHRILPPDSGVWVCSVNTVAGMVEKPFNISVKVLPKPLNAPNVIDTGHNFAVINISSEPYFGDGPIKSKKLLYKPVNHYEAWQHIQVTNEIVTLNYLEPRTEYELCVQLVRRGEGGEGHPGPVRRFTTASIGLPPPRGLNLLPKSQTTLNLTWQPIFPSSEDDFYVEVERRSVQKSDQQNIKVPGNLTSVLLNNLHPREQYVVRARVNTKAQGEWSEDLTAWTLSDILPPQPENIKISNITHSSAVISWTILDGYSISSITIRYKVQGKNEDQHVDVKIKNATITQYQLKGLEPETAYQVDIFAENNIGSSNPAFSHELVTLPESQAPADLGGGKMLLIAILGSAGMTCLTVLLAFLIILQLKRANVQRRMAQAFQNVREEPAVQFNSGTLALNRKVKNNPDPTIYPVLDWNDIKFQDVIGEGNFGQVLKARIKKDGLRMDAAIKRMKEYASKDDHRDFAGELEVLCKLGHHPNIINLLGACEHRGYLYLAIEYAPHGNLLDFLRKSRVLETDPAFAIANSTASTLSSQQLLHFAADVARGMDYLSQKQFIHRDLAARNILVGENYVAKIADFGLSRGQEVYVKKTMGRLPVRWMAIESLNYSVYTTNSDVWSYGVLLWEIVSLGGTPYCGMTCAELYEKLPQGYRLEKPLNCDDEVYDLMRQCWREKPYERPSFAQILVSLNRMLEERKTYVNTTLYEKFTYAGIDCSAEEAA
Procedure: as §1

[9] = target: T9, CAMK2G (Homo sapiens, UniProt Q13555)
T9 construct: purchased ProQinase (Freiburg, Germany)
T9 sequence (Q13555 whole entry): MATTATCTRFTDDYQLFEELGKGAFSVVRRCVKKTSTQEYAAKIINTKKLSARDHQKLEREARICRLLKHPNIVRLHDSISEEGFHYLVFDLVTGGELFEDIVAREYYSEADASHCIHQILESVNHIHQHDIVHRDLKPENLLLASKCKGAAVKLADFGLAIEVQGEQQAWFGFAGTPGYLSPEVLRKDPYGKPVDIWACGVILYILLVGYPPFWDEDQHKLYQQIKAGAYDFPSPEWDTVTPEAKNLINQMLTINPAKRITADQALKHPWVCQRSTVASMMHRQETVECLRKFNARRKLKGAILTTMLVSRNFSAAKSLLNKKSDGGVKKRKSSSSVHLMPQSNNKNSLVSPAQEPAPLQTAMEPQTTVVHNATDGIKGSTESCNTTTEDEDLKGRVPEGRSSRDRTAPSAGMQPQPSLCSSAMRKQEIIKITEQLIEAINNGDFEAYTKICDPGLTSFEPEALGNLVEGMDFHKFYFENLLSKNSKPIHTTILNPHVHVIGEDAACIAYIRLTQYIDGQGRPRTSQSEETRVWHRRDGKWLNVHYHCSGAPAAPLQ
Procedure: as §1

[10] = target: T10, PAK4 (Homo sapiens, UniProt O96013)
T10 construct: purchased ProQinase (Freiburg, Germany)
T10 sequence (O96013 whole entry): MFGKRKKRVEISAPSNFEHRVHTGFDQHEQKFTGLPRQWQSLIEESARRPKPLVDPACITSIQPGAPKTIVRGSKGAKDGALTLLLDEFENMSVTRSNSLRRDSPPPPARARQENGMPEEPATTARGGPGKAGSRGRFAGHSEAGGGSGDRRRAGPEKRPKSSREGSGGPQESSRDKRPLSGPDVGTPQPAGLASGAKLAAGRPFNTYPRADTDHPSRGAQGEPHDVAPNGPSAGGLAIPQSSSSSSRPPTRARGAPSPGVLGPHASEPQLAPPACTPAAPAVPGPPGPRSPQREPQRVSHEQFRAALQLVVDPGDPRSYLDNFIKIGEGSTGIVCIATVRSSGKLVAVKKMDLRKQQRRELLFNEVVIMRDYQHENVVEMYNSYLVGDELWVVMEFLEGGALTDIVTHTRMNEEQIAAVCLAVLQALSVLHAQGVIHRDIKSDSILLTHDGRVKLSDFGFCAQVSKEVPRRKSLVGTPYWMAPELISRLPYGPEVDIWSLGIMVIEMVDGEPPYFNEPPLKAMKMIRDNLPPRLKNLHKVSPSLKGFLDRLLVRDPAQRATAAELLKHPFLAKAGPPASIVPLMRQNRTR
Procedure: as §1

[11] = target: T11, PKCgamma (Homo sapiens, UniProt P05129)
T11 construct: purchased ProQinase (Freiburg, Germany)
Procedure: as §1

[12] = target: T12, SRMS (Homo sapiens, UniProt Q9H3Y6)
T12 construct: purchased ProQinase (Freiburg, Germany)
Procedure: as §1

[13] = target: T13, CDK20/CycH (Homo sapiens, UniProt Q8IZL9)
T13 construct: purchased ProQinase (Freiburg, Germany)
Procedure: as §1

[14] = target: T14, FAK (Homo sapiens, UniProt Q05397)
T14 construct: purchased ProQinase (Freiburg, Germany)
T14 sequence (Q05397 whole entry): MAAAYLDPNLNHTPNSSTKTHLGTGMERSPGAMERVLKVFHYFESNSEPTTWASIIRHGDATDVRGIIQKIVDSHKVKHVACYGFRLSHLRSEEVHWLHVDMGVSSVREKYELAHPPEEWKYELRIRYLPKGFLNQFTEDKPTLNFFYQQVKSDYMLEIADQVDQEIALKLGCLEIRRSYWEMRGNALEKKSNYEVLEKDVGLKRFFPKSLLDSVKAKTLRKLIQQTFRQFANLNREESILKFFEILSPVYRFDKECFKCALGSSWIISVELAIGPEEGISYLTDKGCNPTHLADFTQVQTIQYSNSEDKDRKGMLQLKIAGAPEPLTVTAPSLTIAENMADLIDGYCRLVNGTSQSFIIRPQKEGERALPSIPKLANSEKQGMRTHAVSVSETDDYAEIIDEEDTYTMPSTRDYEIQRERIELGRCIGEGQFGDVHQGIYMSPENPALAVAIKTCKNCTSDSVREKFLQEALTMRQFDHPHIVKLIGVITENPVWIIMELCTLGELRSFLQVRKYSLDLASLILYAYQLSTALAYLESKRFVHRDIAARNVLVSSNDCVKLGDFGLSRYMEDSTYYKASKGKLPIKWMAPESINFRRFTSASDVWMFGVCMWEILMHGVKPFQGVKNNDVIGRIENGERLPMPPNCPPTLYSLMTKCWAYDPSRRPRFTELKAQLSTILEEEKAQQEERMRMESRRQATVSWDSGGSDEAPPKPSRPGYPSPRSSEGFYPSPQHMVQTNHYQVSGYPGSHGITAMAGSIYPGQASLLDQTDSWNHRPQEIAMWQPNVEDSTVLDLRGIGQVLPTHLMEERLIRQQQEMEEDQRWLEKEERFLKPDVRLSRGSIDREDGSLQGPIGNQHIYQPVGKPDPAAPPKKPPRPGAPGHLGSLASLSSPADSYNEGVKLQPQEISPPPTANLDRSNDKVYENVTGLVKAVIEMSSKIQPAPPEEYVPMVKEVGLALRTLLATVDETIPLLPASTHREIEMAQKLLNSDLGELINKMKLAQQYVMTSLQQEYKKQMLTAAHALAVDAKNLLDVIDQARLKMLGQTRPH
Procedure: as §1

[15] = target: T15, EEF2K (Homo sapiens, UniProt O00418)
T15 construct: purchased ProQinase (Freiburg, Germany)
T15 sequence (O00418 1-725): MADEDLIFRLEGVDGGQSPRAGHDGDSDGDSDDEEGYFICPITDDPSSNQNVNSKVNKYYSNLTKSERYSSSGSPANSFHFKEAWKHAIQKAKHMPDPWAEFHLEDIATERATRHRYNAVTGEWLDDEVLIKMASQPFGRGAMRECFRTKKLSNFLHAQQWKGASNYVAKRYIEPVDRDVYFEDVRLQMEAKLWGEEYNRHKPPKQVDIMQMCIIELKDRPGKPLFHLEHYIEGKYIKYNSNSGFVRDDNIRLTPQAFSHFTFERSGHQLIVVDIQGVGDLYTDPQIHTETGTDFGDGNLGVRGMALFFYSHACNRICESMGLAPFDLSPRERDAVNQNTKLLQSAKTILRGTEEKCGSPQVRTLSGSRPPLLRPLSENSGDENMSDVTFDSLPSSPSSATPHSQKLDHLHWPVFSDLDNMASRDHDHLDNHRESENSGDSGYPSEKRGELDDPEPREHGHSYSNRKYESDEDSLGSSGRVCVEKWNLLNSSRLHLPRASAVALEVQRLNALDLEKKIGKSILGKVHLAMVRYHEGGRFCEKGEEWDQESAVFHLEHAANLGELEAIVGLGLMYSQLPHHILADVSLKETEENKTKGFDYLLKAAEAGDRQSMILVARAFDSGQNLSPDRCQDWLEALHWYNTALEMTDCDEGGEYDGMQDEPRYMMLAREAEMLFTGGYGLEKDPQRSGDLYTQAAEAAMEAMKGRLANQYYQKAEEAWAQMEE
Procedure: as §1

T1 sequence (O60674 whole entry): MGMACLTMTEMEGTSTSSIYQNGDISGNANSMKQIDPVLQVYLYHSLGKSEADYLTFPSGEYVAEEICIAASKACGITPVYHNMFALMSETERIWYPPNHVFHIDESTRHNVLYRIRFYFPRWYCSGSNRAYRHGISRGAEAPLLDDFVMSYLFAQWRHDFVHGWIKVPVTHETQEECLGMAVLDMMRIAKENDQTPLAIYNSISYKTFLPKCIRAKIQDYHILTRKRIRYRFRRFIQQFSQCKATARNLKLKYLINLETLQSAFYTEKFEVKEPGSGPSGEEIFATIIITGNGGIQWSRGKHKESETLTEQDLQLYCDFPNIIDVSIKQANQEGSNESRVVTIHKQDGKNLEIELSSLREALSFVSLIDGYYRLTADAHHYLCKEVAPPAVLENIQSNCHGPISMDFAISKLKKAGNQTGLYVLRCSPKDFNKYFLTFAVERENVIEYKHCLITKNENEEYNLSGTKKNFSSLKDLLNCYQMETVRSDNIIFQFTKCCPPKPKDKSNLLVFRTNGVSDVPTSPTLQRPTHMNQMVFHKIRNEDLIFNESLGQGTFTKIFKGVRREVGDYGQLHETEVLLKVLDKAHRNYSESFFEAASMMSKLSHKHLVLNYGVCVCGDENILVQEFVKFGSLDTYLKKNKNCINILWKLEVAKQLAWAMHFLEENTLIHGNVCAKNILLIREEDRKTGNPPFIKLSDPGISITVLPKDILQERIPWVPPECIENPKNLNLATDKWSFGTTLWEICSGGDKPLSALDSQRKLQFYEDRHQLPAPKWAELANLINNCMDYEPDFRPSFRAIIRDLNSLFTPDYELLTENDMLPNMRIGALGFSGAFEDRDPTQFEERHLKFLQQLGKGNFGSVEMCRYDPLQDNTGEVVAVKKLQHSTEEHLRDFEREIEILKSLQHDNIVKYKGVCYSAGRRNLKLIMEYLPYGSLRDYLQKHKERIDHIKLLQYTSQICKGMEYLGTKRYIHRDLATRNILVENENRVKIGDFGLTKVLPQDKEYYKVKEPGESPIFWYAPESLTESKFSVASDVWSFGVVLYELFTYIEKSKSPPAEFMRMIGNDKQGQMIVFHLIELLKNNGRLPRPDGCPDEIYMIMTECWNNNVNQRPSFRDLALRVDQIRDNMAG

Row | SMILES | Residual activity ([1]; 1.0E-05 M) | Residual activity ([1]; 1.0E-06 M) | Residual activity ([2]; 1.0E-05 M) | Residual activity ([2]; 1.0E-06 M) | Residual activity ([3]; 1.0E-05 M) | Residual activity ([3]; 1.0E-06 M) | Residual activity ([4]; 1.0E-05 M) | Residual activity ([4]; 1.0E-06 M) | Residual activity ([5]; 1.0E-05 M) | Residual activity ([5]; 1.0E-06 M) | Residual activity ([6]; 1.0E-05 M) | Residual activity ([6]; 1.0E-06 M) | Residual activity ([7]; 1.0E-05 M) | Residual activity ([7]; 1.0E-06 M) | Residual activity ([8]; 1.0E-05 M) | Residual activity ([8]; 1.0E-06 M) | Residual activity ([9]; 1.0E-05 M) | Residual activity ([9]; 1.0E-06 M) | Residual activity ([10]; 1.0E-05 M) | Residual activity ([10]; 1.0E-06 M) | further results
1 | O=C(Nc1ccc(F)c(Nc2ccc3c(c2)CCCCC3=O)c1)c1cccc(F)c1 [Compound 109] | 89 % of control | 90 % of control | 93 % of control | 102 % of control | 100 % of control | 109 % of control | 84 % of control | 99 % of control | 85 % of control | 94 % of control | 129 % of control | 98 % of control | 101 % of control | 96 % of control | 78 % of control | 87 % of control | 111 % of control | 109 % of control | 82 % of control | 98 % of control | Residual activity ([11]; 1.0E-05 M): 63 % of control; Residual activity ([11]; 1.0E-06 M): 81 % of control; Residual activity ([12]; 1.0E-05 M): 97 % of control; Residual activity ([12]; 1.0E-06 M): 98 % of control; Residual activity ([13]; 1.0E-05 M): 121 % of control; Residual activity ([13]; 1.0E-06 M): 110 % of control; Residual activity ([14]; 1.0E-05 M): 88 % of control; Residual activity ([14]; 1.0E-06 M): 104 % of control; Residual activity ([15]; 1.0E-05 M): 94 % of control; Residual activity ([15]; 1.0E-06 M): 95 % of control
2 | O=C(Cc1ccccc1)Nc1ccc(F)c(Nc2ccc3c(c2)CCCCC3=O)c1 [Compound 100] | 85 % of control | 94 % of control | 83 % of control | 95 % of control | 99 % of control | 113 % of control | 89 % of control | 104 % of control | 95 % of control | 89 % of control | 123 % of control | 120 % of control | 97 % of control | 105 % of control | 66 % of control | 96 % of control | 107 % of control | 105 % of control | 92 % of control | 97 % of control | Residual activity ([11]; 1.0E-05 M): 78 % of control; Residual activity ([11]; 1.0E-06 M): 77 % of control; Residual activity ([12]; 1.0E-05 M): 93 % of control; Residual activity ([12]; 1.0E-06 M): 102 % of control; Residual activity ([13]; 1.0E-05 M): 98 % of control; Residual activity ([13]; 1.0E-06 M): 103 % of control; Residual activity ([14]; 1.0E-05 M): 88 % of control; Residual activity ([14]; 1.0E-06 M): 116 % of control; Residual activity ([15]; 1.0E-05 M): 89 % of control; Residual activity ([15]; 1.0E-06 M): 102 % of control
